In publication PMC12053792 (Journal of Peptide Science, 2025):
“Also recorded” adds a separate entry of the source.

Assays:
[1] = system: CD8+ cells; conditions: models vaccinated against NY‐ESO‐1; ref [34], [35], [36]; cited from earlier work
From the text: (§1) Two CTA epitopes; NY‐ESO‐1_157‐165 and BAGE4_18–39 were employed as the antigenic components in our studies. […] BAGE4_18–39 represents the entire BAGE4 CTA minus the signal peptide; this antigen is expressed in 22% of melanomas and 30% of infiltrating bladder carcinomas; to our knowledge, it has not been evaluated in vivo. Inclusion of the ...

[2] = system: HLA‐A2; conditions: ref [34], [35], [36]; cited from earlier work
From the text: as §1

[3] = system: BALB/c mice; assay: In vivo toxicity in healthy BALB/c mice; conditions: antigen alone / components administered separately
[4] = system: anti‐BAGE4 antibody; assay: Competitive ELISA, antibody recognition of BAGE4 antigen; format: binding, rabbit; conditions: 11 antigen concentrations between 1000 and 0.98 ng/mL, anti‐BAGE4 antibody SAB4301150 (1:250), 1 h, BAGE4-coated 384‐well plate, PBST with 0.05% Tween 20 as negative control, HRP/TMB, absorbance 450 nm
Description: Antibody–antigen complexes were then added to 384‐well plates which were precoated with 10 ng/mL of antigen. The secondary antibody, specific to the primary and conjugated to horseradish peroxidase (HRP) enzyme (produced in rabbit), was added, followed by TMB for colour development.
The antigen was diluted to 100 ng/ml in carbonate-bicarbonate
buffer, then 60 μL of the antigen dilution was pipetted into the wells of Maxisorp 384 well plate.
The plate was diluted as required (23 dilutions were prepared) and incubated at 4 °C under
foil overnight. The coating solution was removed and the plate washed three times by filling
the wells with 200 μL PBST. The solutions or washes were removed by flicking the plate over
a sink, then patting the plate dry with a paper towel.
Remaining protein-binding sites in the coated wells were blocked by adding 40 μL blocking
buffer (3% whey, 0.05% NaN3, 0.1% EDTA in PBS) to each well. The plates were covered
with foil and incubated for 2 h at rt or overnight at 4 °C. Plates were washed three times by
filling the wells with 200 μL PBS.
Incubation with primary and secondary antibody
In an Abgene 96 well plate, 8 dilutions of primary antibody (anti-BAGE4 produced in rabbit;
Sigma Aldrich SAB4301150, and anti-NY-ESO-1 produced in mouse; Sigma Aldrich N2038) […]
The optical density at 450 nm was recorded. […]

[5] = system: IFNγ‐secreting T‐cells; assay: In vivo immunisation, IFNγ ELISpot on splenocytes, BALB/c mice
Description: Animal experiments were carried out with ethical approval from University of Nottingham ethical review board and under a Home Office approved project license (PP2706800). Mice were dosed with 10 nmol of material in 50 μL at Days 1, 8 and 15 (n = 3). IFNϒ ELISpot assays on splenocytes were conducted on termination at Day 21. General methods for the ELISpot can be found in the Supporting Information. Preparation of media and buffers and steps performed on Days 1 and 2 post‐termination; the ELISpot assays were performed using a laminar flow cabinet and aseptic techniques to ensure the sterility of media, reagents and plates at stages before development of the ELISpot. Development of the ELISpot on Day 4 posttermination was performed on the laboratory bench.
The response was measured by count of peptide‐specific IFNγ‐secreting T‐cells by ELISpot assay. Since no studies to date have addressed T‐cell responses to BAGE4 in conventional or HLA‐A2 (HHDII/DR1) transgenic mice, conventional mice were initially selected. The H‐2d haplotype (BALB/c) strain was selected for this study as the epitope predictions for peptides that bind to MHC I and II are effective for this strain (IEDB Analysis Resource). Splenocytes from the immunised mice were tested against three predicted epitope peptides from BAGE4_18–39, which should reactivate T‐cell responses in this strain of mice when immunised with BAGE4_18–39 vaccine candidates. Lipopolysaccharide (LPS; 5 μg/mL) was used as the positive control (non‐specific stimulus of the immune system).
In Vivo Evaluation (ELISpot Assay)
Animal experiments were carried out with ethical approval from University of Nottingham ethical review boards and under a Home Office approved project license (PP2706800). HLA-HHDII/DR1 (HLA-A2.1+/+ HLADR1+/+, Pasteur Institute) transgenic mice knocked out for murine MHC-I and II and expressing chimeric HLA-A2 (HHDII) and human HLA-DR1 or Balb/c mice (Charles River) aged 6-12 weeks were used. Mice were vaccinated with 10 ηmol of each immunogen at each timepoint. Doses were delivered subcutaneously (s.c.) in 50 µl volume on days 1, 8 and 15. No anaesthesia was used for injections. Responses were screened on day 21 after euthanasia by cervical dislocation. Preparation of media and buffers and steps performed on days 1 and 2 of the ELISpot assay were performed using a laminar flow cabinet and aseptic techniques to ensure the sterility of media, reagents and plates at stages before development of the ELISpot. Development of the ELISpot on day 4 can be performed on the […]
The following tables summarise the details of the vaccine candidates and vaccination procedure including (dose time points): […]
Table S6. Summary of the injection schedule (including dose concentration and number) for the following vaccine candidates: BAGE418-39 candidate (co-administered with IFA), Cys-BAGE4-MalLNP conjugate, Pam2Cys-SK4-BAGE18-39 (2), and 2-LNP using BALB/c mice. […]
peptide mixed splenocytes
1 with standard 10 nmol SC Day 1,8 & 15 3 Day 21 ELISA on
3 Pam2Cys-SK4- 10 nmol SC Day 1, 8 & 3 Day 1 Experiment
Pam2Cys-SK4- 10 nmol Day 1, 8 & Experiment
Elispot assays were performed using murine IFNγ capture and detection reagents according to the manufacturer’s instructions (Mabtech).
Day 1: Coating of plates with capture antibody
20 μL 35% ethanol was added to each well then discarded. Each plate was then washed 4 times with 200 μL of sterile distilled water per well. […]

[6] = system: TLR2; conditions: Pam2Cys adjuvanting moiety; ref [19]; cited from earlier work
From the text: Due to the small size of many CTAs (several under 100 amino acids in length), it is possible to produce the whole CTA synthetically via solid‐phase peptide synthesis (SPPS), coupled with native chemical ligation if required. […] An additional benefit of using palmitoyl functionality is the ability of the fatty acid chains to be incorporated into nanoparticles via sel ...

Question: Which “Immunogenicity / T‐cell reactivation (in words)” value [1] does the source give for SLLMWITQC [NY‐ESO‐1_157‐165] here?
Answer: spontaneously immunogenic; also recorded: reactivate T‐cell responses (CD8+ cells)

Question: And the “Binding to HLA‐A2 (in words)” value [2]?
Answer: able to bind to HLA‐A2

Question: With “BAGE4_18–39: small (22 amino acid, excluding the signal peptide) underexplored melanoma antigen (RLMKEESPVVSWWLEPEDGTAL; UniProt Q86Y28 18-39, looked up, fragment)” as the compound, how does the “Toxicity of antigen or components administered separately” value [3] read?
Answer: does not show any toxicity

Question: And the IC50 [4]?
Answer: 11.4 nM

Question: And the “T‐cell response, median” value ([5]; BAGE4 peptide + IFA, 10 nmol in 50 μL s.c., days 1, 8, 15, n = 3, day 21, restimulated with BAGE4_18–39, IFNγ ELISpot count)?
Answer: 511

Question: And the “T‐cell response / ANOVA significance (in words)” value ([5]; BAGE4 peptide + IFA, 10 nmol s.c., days 1, 8, 15, n = 3, restimulated with BAGE4_18–32)?
Answer: slightly lower responses

Question: What about the “T‐cell response / ANOVA significance (in words)” value ([5]; BAGE4 peptide + IFA, 10 nmol s.c., days 1, 8, 15, n = 3, restimulated with BAGE4_18–39) of the same compound?
Answer: good responses

Question: And the “T‐cell response / ANOVA significance (in words)” value ([5]; BAGE4 peptide + IFA, 10 nmol s.c., days 1, 8, 15, n = 3, restimulated with BAGE4_22–31)?
Answer: almost no response; also recorded: no significance

Question: And the “Immunogenicity (in words)” value ([5]; BALB/c mice, 10 nmol s.c., days 1, 8 and 15, n = 3, IFNγ ELISpot day 21)?
Answer: immunogenic in conventional BALB/c mice

Question: For `CCCCCCCCCCCCCCCC(=O)OCC(CSCC(N)C(=O)O)OC(=O)CCCCCCCCCCCCCCC` (stereo not shown), which “Potency relative to (R)‐analogue” value [6] is on record?
Answer: hundredfold decrease in potency compared to the (R)‐analogue
